Target: h-TRPA1 (Homo sapiens (Human), UniProt O75762)
Experiment: Dose response calcium flux (FLIPR) assay, ChanTest hTRPA1-CHO stably transfected cell line, cinnamaldehyde agonist
Type: cell-based
Conditions: for inhibition at 1 µM / inhibition at 30 µM / inhibition at 3 µM / inhibition at 10 µM: % inhibition of the inhibitor control, read-out: Inhibition % @ concentration; for IC50: CHO-K1 Tet-On TRPA1 cells, calcium flux, 100 uM cinnamaldehyde
Method: IC50 Determinations of Exemplified Compounds
Dose Response Assay: ChanTest hTRPA1-CHO Stably Transfected Cell Line
To induce expression, tetracycline was added to blasticidin/zeocin-free media at a final concentration of 1 ug/ml. Experiments were run at 24 hours post induction.
Plating Conditions CHOK1/TRPA1 Cells:
Harvested cells with 0.025% trypsin/EDTA.
Resuspended cells in growth media without selection antibiotics.
Measured cell density and diluted to 2.4×10^5 cells/ml in media containing 1 ug/ml Doxycycline Plate 25 ul/well into 384 well black/clear tissue culture-treated plates.
Incubated overnight at 37° C.
Replacement Buffer: Hank's Balanced Salt Solution, 20 mM HEPES along with 0.005% BSA and 2× Probenecid
Dye Loading Buffer: Cal-3 NW Calcium dye was prepared by dissolving the contents of one vial with 500 ml Hank's Balanced Salt Solution containing 20 mM HEPES. • Control compounds for CHOK1/TRPA1 cells:
AP-18, stock 10 mM, prepare 3.5× compound dilution in a Compound Buffer (HBSS/20 mM HEPES/0.005% BSA)—final concentration 10 uM.
Working solution 4.5× (final 100 uM in Compound Buffer: HBSS/20 mM HEPES/0.005% BSA)
Compounds dilutions were prepared from 5 or 10 mM stock (100% DMSO):
Compounds were tested at either 20 μM three folds dilution 11 steps out or 30 μM two folds dilution 11 steps out.
3 μl of diluted compound were transferred into Weidmann 384-well plate in duplicates side-by-side.
Compound plates were resuspended with 100 ul of HBSS/20 mM HEPES/0.005% BSA buffer (Compound Buffer):
Growth media was removed from the cell plates (20 ul) and 20 ul of the Replacement Buffer was added followed by addition of 25 ul of diluted dye. All three steps were performed using a Plate Washer BioTek 407. The plates were then incubated for 30′ at RT.
After incubation, both the cell and compound plates were brought to the FLIPR and 20 ul of the diluted compounds/antagonist/bk were transferred to the cell plates by the FLIPR. Plates were then incubated for 30′ at room temperature. After 30′ incubation, plates were returned to the FLIPR and 20 ul of 4.5× Cinnamaldehyde was added to the cell plates. During the compound addition as well as agonist addition, fluorescence readings were taken simultaneously from all 384 wells of the cell plate every 1.5 seconds. Five readings were taken to establish a stable baseline, then 20 ul of sample was rapidly (30 ul/sec) and simultaneously added to each well of the cell plate. The fluorescence was continuously monitored before, during and after sample/agonist addition for a total elapsed time of 100 seconds (compound addition) and 120 seconds (agonist addition). Responses (increase in peak fluorescence) in each well following agonist addition was determined. The initial fluorescence reading from each well, prior to ligand stimulation, was used a zero baseline value for the data from that well.

Sequence of h-TRPA1 (O75762 whole entry): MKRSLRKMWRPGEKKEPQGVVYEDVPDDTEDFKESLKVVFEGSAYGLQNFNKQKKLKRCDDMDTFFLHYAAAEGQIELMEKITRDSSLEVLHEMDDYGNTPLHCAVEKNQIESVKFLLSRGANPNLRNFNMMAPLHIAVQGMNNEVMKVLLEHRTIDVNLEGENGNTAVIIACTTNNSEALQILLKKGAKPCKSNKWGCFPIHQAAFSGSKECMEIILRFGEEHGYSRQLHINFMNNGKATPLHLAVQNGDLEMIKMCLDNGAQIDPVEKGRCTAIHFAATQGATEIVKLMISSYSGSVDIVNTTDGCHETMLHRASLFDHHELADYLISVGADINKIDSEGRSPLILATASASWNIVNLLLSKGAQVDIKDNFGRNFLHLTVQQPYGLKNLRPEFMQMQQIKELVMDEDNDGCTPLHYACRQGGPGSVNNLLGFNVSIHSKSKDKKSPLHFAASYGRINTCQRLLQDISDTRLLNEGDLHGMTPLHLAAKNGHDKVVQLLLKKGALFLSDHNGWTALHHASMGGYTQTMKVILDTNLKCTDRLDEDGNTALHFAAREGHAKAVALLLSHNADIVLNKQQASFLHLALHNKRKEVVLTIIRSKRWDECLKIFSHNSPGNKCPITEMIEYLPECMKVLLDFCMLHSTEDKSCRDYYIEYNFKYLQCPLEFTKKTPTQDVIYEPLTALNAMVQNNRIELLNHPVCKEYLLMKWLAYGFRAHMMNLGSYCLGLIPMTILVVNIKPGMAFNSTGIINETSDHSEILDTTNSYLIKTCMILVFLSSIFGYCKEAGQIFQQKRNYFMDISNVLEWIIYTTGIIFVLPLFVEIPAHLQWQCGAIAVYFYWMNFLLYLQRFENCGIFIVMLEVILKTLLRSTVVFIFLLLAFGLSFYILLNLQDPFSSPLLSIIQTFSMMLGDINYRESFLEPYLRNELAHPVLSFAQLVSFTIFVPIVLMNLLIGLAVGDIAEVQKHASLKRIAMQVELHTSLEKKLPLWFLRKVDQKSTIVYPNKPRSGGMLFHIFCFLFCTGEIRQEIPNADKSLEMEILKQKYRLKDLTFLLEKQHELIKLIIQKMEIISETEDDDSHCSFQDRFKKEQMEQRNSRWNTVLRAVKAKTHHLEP

| Structure (SMILES) | inhibition at 1 µM | IC50 | inhibition at 30 µM | inhibition at 3 µM | inhibition at 10 µM |
| --- | --- | --- | --- | --- | --- |
| COC(=O)CNc1c(-c2cccc(F)c2)nc2ccc(F)cn12 [Example 3, [6-Fluoro-2-(3-fluoro-phenyl)-imidazo[1,2-a]pyridin-3-ylamino]-acetic acid methyl ester] | – | 3300 nM | 74.3% | – | – |
| CC(C)(C)Nc1c(-c2cccc(F)c2)nc2ccc(C(F)(F)F)cn12 [Example 4, tert-Butyl-[2-(3-fluoro-phenyl)-6-trifluoromethyl-imidazo[1,2-a]pyridin-3-yl]-amine] | – | 1330 nM | – | 100% | – |
| CC(C)(C)Nc1c(-c2cccc(C#N)c2)nc2ccc(C(F)(F)F)cn12 [Example 5, 3-(3-tert-Butylamino-6-trifluoromethyl-imidazo[1,2-a]pyridin-2-yl)-benzonitrile] | – | 854 nM | 100% | – | – |
| CC(C)(C)Nc1c(-c2cccc(C#N)c2)nc2ccc(Cl)cn12 [Example 6, 3-(3-tert-Butylamino-6-chloro-imidazo[1,2-a]pyridin-2-yl)-benzonitrile] | – | 2130 nM | – | – | 90% |
| Clc1cccc(-c2nc3ccc(Cl)cn3c2NC2CC2)c1 [Example 7, [6-Chloro-2-(3-chloro-phenyl)-imidazo[1,2-a]pyridin-3-yl]-cyclopropyl-amine] | – | 1590 nM | – | – | 100% |
| CC(C)(C)Nc1c(-c2cccc(Cl)c2)nc2c(Br)cc(Cl)cn12 [Example 8, [8-Bromo-6-chloro-2-(3-chloro-phenyl)-imidazo[1,2-a]pyridin-3-yl]-tert-butyl-amine] | – | 1090 nM | – | 100% | – |
| CC(C)(C)Nc1c(-c2cc(Cl)cc(Cl)c2)nc2ccc(C(F)(F)F)cn12 [Example 11, tert-Butyl-[2-(3,5-dichloro-phenyl)-6-trifluoromethyl-imidazo[1,2-a]pyridin-3-yl]-amine] | – | 1330 nM | 98% | – | – |
| CC(C)(C)Nc1c(-c2cccc(Cl)c2)nc2cc(C(F)(F)F)ccn12 [Example 13, tert-Butyl-[2-(3-chloro-phenyl)-7-trifluoromethyl-imidazo[1,2-a]pyridin-3-yl]-amine] | – | 1120 nM | 100% | – | – |
| CCNc1c(-c2cccc(Cl)c2)nc2ccc(C(F)(F)F)cn12 [Example 14, [2-(3-Chloro-phenyl)-6-trifluoromethyl-imidazo[1,2-a]pyridin-3-yl]-ethyl-amine] | – | 2070 nM | 100% | – | – |
| CC(C)(C)Nc1c(-c2cccc(C#N)c2)nc2ccc(F)cn12 [Example 18, 3-(3-tert-Butylamino-6-fluoro-imidazo[1,2-a]pyridin-2-yl)-benzonitrile] | – | 20400 nM | 80.9% | – | – |

Molecules with a lower IC50, results first:

| inhibition at 1 µM | IC50 | inhibition at 30 µM | inhibition at 3 µM | inhibition at 10 µM | Structure (SMILES) |
| --- | --- | --- | --- | --- | --- |
| 100% | 132 nM | – | – | – | CC(C)Nc1c(-c2cccc(Cl)c2)nc2ccc(Br)cn12 [Example 1] |
| – | 195 nM | 100% | – | – | CC(C)Nc1c(-c2cccc(Cl)c2)nc2ccc(Cl)cn12 [Example 2, [6-Chloro-2-(3-chloro-phenyl)-imidazo[1,2-a]pyridin-3-yl]-isopropyl-amine] |
| – | 229 nM | 100% | – | – | Cc1cc2nc(-c3cccc(Cl)c3)c(NC(C)(C)C)n2cc1Br [Example 9, [6-Bromo-2-(3-chloro-phenyl)-7-methyl-imidazo[1,2-a]pyridin-3-yl]-tert-butyl-amine] |
| – | 221 nM | – | – | 100% | Cc1cc(Br)cn2c(NC(C)(C)C)c(-c3cccc(Cl)c3)nc12 [Example 10, [6-Bromo-2-(3-chloro-phenyl)-8-methyl-imidazo[1,2-a]pyridin-3-yl]-tert-butyl-amine] |
| 100% | 110 nM | – | – | – | C#Cc1cccc(-c2nc3ccc(C(F)(F)F)cn3c2NC(C)(C)C)c1 [Example 12, tert-Butyl-[2-(3-ethynyl-phenyl)-6-trifluoromethyl-imidazo[1,2-a]pyridin-3-yl]-amine] |
| – | 82 nM | – | – | 100% | C#Cc1cccc(-c2nc3ccc(C(F)(F)F)cn3c2NC(C)C)c1 [Example 15, [2-(3-Ethynyl-phenyl)-6-trifluoromethyl-imidazo[1,2-a]pyridin-3-yl]-isopropyl-amine] |
| – | 143 nM | – | 100% | – | CC(C)Nc1c(-c2cccc(Cl)c2)nc2ccc(C(F)(F)F)cn12 [Example 16, [2-(3-Chloro-phenyl)-6-trifluoromethyl-imidazo[1,2-a]pyridin-3-yl]-isopropyl-amine] |
| – | 264 nM | – | – | 100% | CC(C)(C)Nc1c(-c2cccc(Br)c2)nc2ccc(C(F)(F)F)cn12 [Example 17, [2-(3-Bromo-phenyl)-6-trifluoromethyl-imidazo[1,2-a]pyridin-3-yl]-tert-butyl-amine] |

— patent US9394304B2, “Imidazopyridine derivatives” (Hoffmann-La Roche Inc., priority 2013, dated 2016)
